pIC50, pKi: −log10 of the molar value. Where two headings read alike, the source gives them in different places.
Tests used:
[1] = target: T1, P2X7 (Homo sapiens (Human), UniProt Q99572); assay: Radioligand binding, human P2X7-1321N1 cell membranes, tracer tritiated A-804598
Description: On the day of the experiment, cell membrane preparations were made according to standard published methods. […] The compound can be prepared as described in the literature. […] The assay was terminated by filtration (GF/B filters pre-soaked with 0.3% PEI) and washed with washing buffer (Tris-HCl 50 mM). The IC50 generated in the binding assay was corrected for tracer concentration and affinity of the tracer to derive at the affinity (Ki) of the test compounds.

[2] = target: T1, P2X7; assay: Ca2+ flux (FLIPR) in 1321N1 cells expressing recombinant human P2X7 channel; type: cell-based; settings: 250 μM BzATP, Calcium-4 dye
Description: 1321N1 cells expressing the recombinant human, rat or mouse P2X7 channel was cultured in HyQ DME/(HyClone/Dulbecco's Modified Eagle Medium) high glucose supplemented with 10% Fetal Bovine Serum (FBS) and appropriate selection marker. Cells were seeded at a density of 25000 cells/well (96-well clear bottom black walled plates) in 100 μl volume/well. On the day of the experiment, cell plates were washed with assay buffer, containing (in mM): 130 NaCl, 2 KCl, 1 CaCl2, 1 MgCl2, 10 HEPES, 5 glucose; pH 7.40 and 300 mOs. After the wash, cells were loaded with the Calcium-4 dye (Molecular Device) and incubated in the dark for 60 minutes. Test compounds were prepared at 250× the test concentration in neat DMSO. Intermediate 96-well compound plates were prepared by transferring 1.2 μL of the compound into 300 μL of assay buffer. A further 3× dilution occurred when transferring 50 μL/well of the compound plate to 100 μL/well in the cell plate. Cells were incubated with test compounds and dye for 30 minutes. […] The fluorescence change was measured 180 seconds after adding the agonist.

[3] = target: rat P2X7 (Rattus norvegicus (Rat), UniProt Q64663); assay: Ca2+ flux (FLIPR) in 1321N1 cells expressing recombinant rat P2X7 channel; type: cell-based; settings: 250 μM BzATP, Calcium-4 dye
In short: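 1321N1 cells stably expressing P2X7 were loaded with Calcium-4 dye for 60 min in HEPES-buffered saline (pH 7.40, 1 mM CaCl2, 1 mM MgCl2), then preincubated with test compounds for 30 min. Fluorescence change was read 180 s after agonist addition.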

[4] = target: T1, P2X7; assay: P2X7 antagonism in human PBMCs (IL-1β release, ELISA); type: cell-based; settings: test compound 10 μM, IL-1β release in human PBMCs, LPS 30 ng/ml + Bz-ATP 0.5 mM, read-out: PBMC 10 μM (% control)
Description: Human blood was collected using a blood donor program. […] Cells were incubated for an additional 1.5 hours. […] In Table 2, when the data cell has been left blank, it is intended to mean that the compound was not tested in that assay.

[5] = human P2X7-1321N1 membranes, 1 hour at 4° C., IC50 corrected for tracer concentration and affinity

T1 sequence (Q99572 whole entry): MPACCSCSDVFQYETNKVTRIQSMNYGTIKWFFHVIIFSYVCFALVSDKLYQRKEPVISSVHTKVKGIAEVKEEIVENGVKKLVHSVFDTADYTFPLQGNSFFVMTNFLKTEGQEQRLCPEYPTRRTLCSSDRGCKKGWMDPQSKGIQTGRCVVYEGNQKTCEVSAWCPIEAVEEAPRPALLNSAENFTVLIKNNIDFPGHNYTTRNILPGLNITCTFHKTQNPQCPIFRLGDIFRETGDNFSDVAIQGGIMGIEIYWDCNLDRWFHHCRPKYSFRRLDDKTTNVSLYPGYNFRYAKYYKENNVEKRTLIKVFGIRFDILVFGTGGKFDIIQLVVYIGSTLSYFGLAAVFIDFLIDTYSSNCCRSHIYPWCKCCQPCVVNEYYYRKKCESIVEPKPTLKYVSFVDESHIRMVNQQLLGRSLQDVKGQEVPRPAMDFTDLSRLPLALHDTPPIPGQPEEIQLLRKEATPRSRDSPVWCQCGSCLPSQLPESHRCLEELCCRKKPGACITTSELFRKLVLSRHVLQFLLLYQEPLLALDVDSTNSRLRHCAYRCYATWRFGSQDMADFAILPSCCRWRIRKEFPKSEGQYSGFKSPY
Sequence of rat P2X7 (Q64663 whole entry): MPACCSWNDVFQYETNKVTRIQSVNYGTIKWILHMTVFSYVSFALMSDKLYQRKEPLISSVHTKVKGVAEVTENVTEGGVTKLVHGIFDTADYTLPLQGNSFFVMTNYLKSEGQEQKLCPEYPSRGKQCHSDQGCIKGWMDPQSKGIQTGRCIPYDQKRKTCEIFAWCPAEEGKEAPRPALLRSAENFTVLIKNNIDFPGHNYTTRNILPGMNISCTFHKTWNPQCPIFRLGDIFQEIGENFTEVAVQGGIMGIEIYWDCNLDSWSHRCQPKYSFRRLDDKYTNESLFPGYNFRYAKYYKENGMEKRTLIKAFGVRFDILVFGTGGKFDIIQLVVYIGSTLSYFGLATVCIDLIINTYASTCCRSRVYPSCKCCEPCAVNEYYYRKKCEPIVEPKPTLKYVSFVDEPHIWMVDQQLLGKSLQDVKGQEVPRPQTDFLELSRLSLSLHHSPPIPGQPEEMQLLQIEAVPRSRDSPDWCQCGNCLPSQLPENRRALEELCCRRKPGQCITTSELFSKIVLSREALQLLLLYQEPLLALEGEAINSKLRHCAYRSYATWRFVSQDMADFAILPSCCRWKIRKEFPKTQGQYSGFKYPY

Cc1nc2c(c(-c3ccn[nH]3)n1)C[C@@H](C)N(C(=O)c1cccc(C(F)(F)F)c1C)C2 (single isomer, unassigned) [Example 78, (R*)-(2,6-dimethyl-4-(1H-pyrazol-5-yl)-5,6-dihydropyrido[3,4-d]pyrimidin-7(8H)-yl)(2-methyl-3-(trifluoromethyl)phenyl)methanone]
pKi [1]: 8.10 | pIC50 [2]: 7.87

Cc1nc2c(c(-c3ccn[nH]3)n1)C[C@H](C)N(C(=O)c1ccc(Cl)cc1F)C2 (single isomer, unassigned) [Example 89, (S*)-(4-chloro-2-fluorophenyl)(2,6-dimethyl-4-(1H-pyrazol-5-yl)-5,6-dihydropyrido[3,4-d]pyrimidin-7(8H)-yl)methanone]
pKi [1]: 7.94 | pIC50 [2]: 7.76

Cc1nc2c(c(-c3ccn[nH]3)n1)C[C@H](C)N(C(=O)c1ccc(F)cc1F)C2 (single isomer, unassigned) [Example 95, (S*)-(2,4-difluorophenyl)(2,6-dimethyl-4-(1H-pyrazol-5-yl)-5,6-dihydropyrido[3,4-d]pyrimidin-7(8H)-yl)methanone]
pKi [1]: 7.50 | pIC50 [3]: 6.99 | pIC50 [2]: 7.19

O=C(c1cccc(C(F)(F)F)c1Cl)N1CCc2c(ncnc2-c2ccccc2)C1 [Example 1, 7-{[2-Chloro-3-(trifluoromethyl)phenyl]carbonyl}-4-phenyl-5,6,7,8-tetrahydropyrido[3,4-d]pyrimidine]
pKi [1, 5]: 6.65 | pIC50 [3]: 5.90 | pIC50 [2]: 7.52

O=C(c1ccc(F)cc1Cl)N1CCc2c(ncnc2-c2ccn[nH]2)C1 [Example 21]
remaining activity at 10 µM [4]: -15.5% | pKi [1, 5]: 7.40 | pIC50 [2]: 6.55

Cc1nc2c(c(-c3ccccc3)n1)CCN(C(=O)c1cccc(Cl)c1Cl)C2 [Example 27, 7-[(2,3-Dichlorophenyl)carbonyl]-2-methyl-4-phenyl-5,6,7,8-tetrahydropyrido[3,4-d]pyrimidine]
pKi [1, 5]: 6.37 | pIC50 [3]: 5.34 | pIC50 [2]: 6.93

O=C(c1cccc(C(F)(F)F)c1Cl)N1CCc2c(ncnc2-c2nccs2)C1 [Example 37, 7-{[2-Chloro-3-(trifluoromethyl)phenyl]carbonyl}-4-(1,3-thiazol-2-yl)-5,6,7,8-tetrahydropyrido[3,4-d]pyrimidine]
pKi [1, 5]: 7.30 | pIC50 [2]: 7.92

O=C(c1cccc(Cl)c1Cl)N1CCc2c(ncnc2-c2nccs2)C1 [Example 38, 7-[(2,3-Dichlorophenyl)carbonyl]-4-(1,3-thiazol-2-yl)-5,6,7,8-tetrahydropyrido[3,4-d]pyrimidine]
pKi [1, 5]: 7.11 | pIC50 [2]: 7.20

O=C(c1cccc(C(F)(F)F)c1Cl)N1CCc2c(ncnc2-c2ccc[nH]2)C1 [Example 42, 7-{[2-Chloro-3-(trifluoromethyl)phenyl]carbonyl}-4-(1H-pyrrol-2-yl)-5,6,7,8-tetrahydropyrido[3,4-d]pyrimidine]
pKi [1, 5]: 7.10 | pIC50 [2]: 7.70

Cc1nc2c(c(-c3cscn3)n1)CCN(C(=O)c1cccc(C(F)(F)F)c1Cl)C2 [Example 44, 7-{[2-Chloro-3-(trifluoromethyl)phenyl]carbonyl}-2-methyl-4-(1,3-thiazol-4-yl)-5,6,7,8-tetrahydropyrido[3,4-d]pyrimidine]
pKi [1, 5]: 7.20 | pIC50 [3]: 6.81 | pIC50 [2]: 7.46

Cc1nc2c(c(-n3ccnn3)n1)CCN(C(=O)c1cccc(C(F)(F)F)c1Cl)C2 [Example 48, 7-{[2-Chloro-3-(trifluoromethyl)phenyl]carbonyl}-2-methyl-4-(1H-1,2,3-triazol-1-yl)-5,6,7,8-tetrahydropyrido[3,4-d]pyrimidine]
pKi [1, 5]: 5.70 | pIC50 [3]: 5.00 | pIC50 [2]: 5.30

Cc1nc2c(c(-c3ccn[nH]3)n1)CCN(C(=O)c1ccc(Cl)c(F)c1Cl)C2 [Example 53, 7-[(2,4-Dichloro-3-fluorophenyl)carbonyl]-2-methyl-4-(1H-pyrazol-5-yl)-5,6,7,8-tetrahydropyrido[3,4-d]pyrimidine]
pKi [1, 5]: 7.20 | pIC50 [3]: 5.72 | pIC50 [2]: 7.08

CN(C)c1nc2c(c(-c3ccn[nH]3)n1)CCN(C(=O)c1cccc(C(F)(F)F)c1Cl)C2 [Example 54, 7-{[2-Chloro-3-(trifluoromethyl)phenyl]carbonyl}-N,N-dimethyl-4-(1H-pyrazol-5-yl)-5,6,7,8-tetrahydropyrido[3,4-d]pyrimidin-2-amine]
remaining activity at 10 µM [4]: 5% | pKi [1, 5]: 7.00 | pIC50 [3]: 6.26 | pIC50 [2]: 7.68

O=C(c1cccc(C(F)(F)F)c1Cl)N1CCc2c(nc(C3CC3)nc2-c2ccn[nH]2)C1 [Example 57, 7-{[2-Chloro-3-(trifluoromethyl)phenyl]carbonyl}-2-cyclopropyl-4-(1H-pyrazol-5-yl)-5,6,7,8-tetrahydropyrido[3,4-d]pyrimidine]
remaining activity at 10 µM [4]: -9.6% | pKi [1, 5]: 7.20 | pIC50 [3]: 6.79 | pIC50 [2]: 7.78

O=C(c1cccc(C(F)(F)F)c1Cl)N1CCc2c(nc(C(F)(F)F)nc2-c2ccn[nH]2)C1 [Example 60, (4-(1H-pyrazol-5-yl)-2-(trifluoromethyl)-5,6-dihydropyrido[3,4-d]pyrimidin-7(8H)-yl)(2-chloro-3-(trifluoromethyl)phenyl)methanone]
remaining activity at 10 µM [4]: 10.8% | pKi [1, 5]: 7.10 | pIC50 [2]: 7.18

CC1Cc2c(ncnc2-c2ccn[nH]2)CN1C(=O)c1cccc(C(F)(F)F)c1Cl (stereo not shown) [Example 62, (2-chloro-3-(trifluoromethyl)phenyl)(6-methyl-4-(1H-pyrazol-5-yl)-5,6-dihydropyrido[3,4-d]pyrimidin-7(8H)-yl)methanone]
remaining activity at 10 µM [4]: 44.7% | pKi [1, 5]: 7.60 | pIC50 [3]: 8.25 | pIC50 [2]: 8.11

CC1Cc2c(nc(N)nc2-c2ccn[nH]2)CN1C(=O)c1cccc(C(F)(F)F)c1Cl (stereo not shown) [Example 63, (2-amino-6-methyl-4-(1H-pyrazol-5-yl)-5,6-dihydropyrido[3,4-d]pyrimidin-7(8H)-yl)(2-chloro-3-(trifluoromethyl)phenyl)methanone]
remaining activity at 10 µM [4]: -4.1% | pKi [1, 5]: 7.65 | pIC50 [3]: 8.60 | pIC50 [2]: 6.50

Cc1nc2c(c(-c3ccn[nH]3)n1)CC(C)N(C(=O)c1cccc(C(F)(F)F)c1C)C2 (stereo not shown) [Example 77, (2,6-dimethyl-4-(1H-pyrazol-5-yl)-5,6-dihydropyrido[3,4-d]pyrimidin-7(8H)-yl)(2-methyl-3-(trifluoromethyl)phenyl)methanone]
remaining activity at 10 µM [4]: 20.9% | pKi [1, 5]: 7.50 | pIC50 [2]: 7.20

Cc1nc2c(c(-c3ccn[nH]3)n1)CC(C)N(C(=O)c1ccc(Cl)cc1F)C2 (stereo not shown) [Example 87, (4-chloro-2-fluorophenyl)(2,6-dimethyl-4-(1H-pyrazol-5-yl)-5,6-dihydropyrido[3,4-d]pyrimidin-7(8H)-yl)methanone]
remaining activity at 10 µM [4]: 0.4% | pKi [1, 5]: 7.50 | pIC50 [2]: 7.47

Cc1nc2c(c(-c3ccn[nH]3)n1)CC(C)N(C(=O)c1ccc(F)cc1F)C2 (stereo not shown) [Example 93, (2,4-difluorophenyl)(2,6-dimethyl-4-(1H-pyrazol-5-yl)-5,6-dihydropyrido[3,4-d]pyrimidin-7(8H)-yl)methanone]
remaining activity at 10 µM [4]: -1.7% | pKi [1, 5]: 6.70 | pIC50 [3]: 6.41 | pIC50 [2]: 7.55

Cc1nc2c(c(-c3ccn[nH]3)n1)CC(C)N(C(=O)c1ccc(Cl)cc1)C2 (stereo not shown) [Example 96, (4-chlorophenyl)(2,6-dimethyl-4-(1H-pyrazol-5-yl)-5,6-dihydropyrido[3,4-d]pyrimidin-7(8H)-yl)methanone]
remaining activity at 10 µM [4]: 3.8% | pKi [1, 5]: 6.20 | pIC50 [3]: 5.73 | pIC50 [2]: 7.30

Cc1nc2c(c(-c3ccn[nH]3)n1)CC(C)N(C(=O)c1ccccc1Cl)C2 (stereo not shown) [Example 97, (2-chlorophenyl)(2,6-dimethyl-4-(1H-pyrazol-5-yl)-5,6-dihydropyrido[3,4-d]pyrimidin-7(8H)-yl)methanone]
remaining activity at 10 µM [4]: -3.1% | pKi [1, 5]: 6.70 | pIC50 [3]: 4.85 | pIC50 [2]: 6.78

O=C(c1ccc(F)c(Cl)c1Cl)N1CCc2c(ncnc2-c2cccc(F)n2)C1 [Example 129, (2,3-dichloro-4-fluorophenyl)(4-(6-fluoropyridin-2-yl)-5,6-dihydropyrido[3,4-d]pyrimidin-7(8H)-yl)methanone]
remaining activity at 10 µM [4]: 2.5% | pKi [1, 5]: 7.40

Cc1nc2c(c(-c3ccn[nH]3)n1)CC(C)N(C(=O)c1cccc(C)c1F)C2 (stereo not shown) [Example 135, (2,6-dimethyl-4-(1H-pyrazol-5-yl)-5,6-dihydropyrido[3,4-d]pyrimidin-7(8H)-yl)(2-fluoro-3-methylphenyl)methanone]
remaining activity at 10 µM [4]: -1% | pIC50 [3]: 5.73 | pIC50 [2]: 6.31
